Structures are written as SMILES.

T1 sequence (P05771 1-673 isoform P05771-2): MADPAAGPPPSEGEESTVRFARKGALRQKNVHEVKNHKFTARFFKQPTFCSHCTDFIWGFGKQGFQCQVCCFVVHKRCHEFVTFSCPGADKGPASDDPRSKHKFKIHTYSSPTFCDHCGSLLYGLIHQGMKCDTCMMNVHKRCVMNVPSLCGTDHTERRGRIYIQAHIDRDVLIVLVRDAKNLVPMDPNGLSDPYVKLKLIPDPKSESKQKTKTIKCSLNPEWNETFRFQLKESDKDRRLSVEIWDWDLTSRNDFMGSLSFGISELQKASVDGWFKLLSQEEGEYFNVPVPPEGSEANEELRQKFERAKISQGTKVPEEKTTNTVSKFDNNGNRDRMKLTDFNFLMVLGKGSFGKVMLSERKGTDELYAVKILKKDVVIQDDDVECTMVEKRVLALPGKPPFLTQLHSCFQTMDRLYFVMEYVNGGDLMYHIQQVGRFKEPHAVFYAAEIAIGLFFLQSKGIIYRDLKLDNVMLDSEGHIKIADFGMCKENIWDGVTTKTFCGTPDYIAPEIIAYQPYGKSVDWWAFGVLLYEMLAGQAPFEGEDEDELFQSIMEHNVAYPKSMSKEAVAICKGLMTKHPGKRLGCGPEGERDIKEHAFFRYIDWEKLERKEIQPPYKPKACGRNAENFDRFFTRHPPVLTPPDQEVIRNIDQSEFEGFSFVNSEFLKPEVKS

This assay addresses T1, human full-length recombinant PKC βII (Homo sapiens, UniProt P05771).
T1 construct: Active human full-length recombinant PKC βII; purchased Invitrogen GmbH, Darmstadt, Germany
Put plainly: Determination of PKC βII inhibition (Caliper mobility shift kinase assay). The note with it: final compound concentration 1.14 μM (±0.15 μM); 60 min incubation at 32° C. In kind it is biochemical. Put shortly:
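Compound was tested at a final 1.14 µM (±0.15 µM), with % inhibition derived from the product/(substrate+product) peak ratio on a Caliper mobility-shift read-out. Full-length PKC βII was activated by CaCl2, PS and DAG in pH 7.4 Hepes/MgCl2. Peptide and ATP were at 3 µM and 120 µM in the added mix. Incubation was 60 min at 32 °C.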
For `Cc1n[nH]c2nc(-c3ccc(O)cc3F)cc(CN3CCNCC3)c12` [Example 13, 3-Fluoro-4-(3-methyl-4-piperazin-1-ylmethyl-1H-pyrazolo[3,4-b]pyridin-6-yl)-phenol], the inhibition (in general, the relative decrease from the control value, in per cent) at 1.14 µM stood at 81%. For `Cc1n[nH]c2nc(-c3ccc(O)cc3F)cc(CN3CC(C)(C)NC[C@@H]3C)c12` [Example 124, 3-Fluoro-4-[3-methyl-4-((S)-2,5,5-trimethyl-piperazin-1-ylmethyl)-1H-pyrazolo[3,4-b]pyridin-6-yl]-phenol] the value was 83%; for `Cc1n[nH]c2nc(-c3ccc(O)cc3F)cc(CN3CC(C)(C4CC4)NCC3(C)C)c12` (stereo not drawn) [Example 23, 4-[4-(5-Cyclopropyl-2,2,5-trimethyl-piperazin-1-ylmethyl)-3-methyl-1H-pyrazolo[3,4-b]pyridin-6-yl]-3-fluoro-phenol], 99%. On to `CC[C@]1(C)CNC(C)(C)CN1Cc1cc(-c2ccc(O)cc2)nc2[nH]nc(C)c12` [Example 141, 4-[4-((R)-2-Ethyl-2,5,5-trimethyl-piperazin-1-ylmethyl)-3-methyl-1H-pyrazolo[3,4-b]pyridin-6-yl]-phenol], for which the inhibition at 1.14 µM amounted to 98%. With `Cc1n[nH]c2nc(-c3ccc(O)cc3F)cc(CN3CC(C)(C)NCC3C)c12` (stereo not drawn) [Example 38, 3-Fluoro-4-[3-methyl-4-(2,5,5-trimethyl-piperazin-1-ylmethyl)-1H-pyrazolo[3,4-b]pyridin-6-yl]-phenol], the inhibition at 1.14 µM was 99%.

As to `Cc1n[nH]c2nc(-c3ccc(O)cc3F)cc(CN3CC(C)(C)N(C)CC3(C)C)c12` [Example 66, 3-Fluoro-4-[3-methyl-4-(2,2,4,5,5-penta-methyl-piperazin-1-ylmethyl)-1H-pyrazolo[3,4-b]-pyridin-6-yl]-phenol], the inhibition at 1.14 µM turned out to be 100%. `Cc1n[nH]c2nc(-c3ccc(O)cc3F)cc(CN3CCC[C@](C)(N)C3)c12` [Example 147, 4-[4-((S)-3-Amino-3-methyl-piperidin-1-ylmethyl)-3-methyl-1H-pyrazolo[3,4-b]pyridin-6-yl]-3-fluoro-phenol]: the inhibition at 1.14 µM is 100%. Regarding `Cc1n[nH]c2nc(-c3ccc(O)cc3F)cc(CN3C[C@@H](C)NC[C@H]3C(F)(F)F)c12` [Example 153, 3-Fluoro-4-[3-methyl-4-((2S,5R)-5-methyl-2-trifluoromethyl-piperazin-1-ylmethyl)-1H-pyrazolo[3,4-b]pyridin-6-yl]-phenol], the inhibition at 1.14 µM was 97%. On to `Cc1n[nH]c2nc(-c3ccc(O)cc3)cc(CN3CCN[C@H](CC(F)(F)F)C3)c12` [Example 91, 4-{3-Methyl-4-[(R)-3-(2,2,2-trifluoro-ethyl)-piperazin-1-ylmethyl]-1H-pyrazolo[3,4-b]pyridin-6-yl}-phenol], for which the inhibition at 1.14 µM was 81%. With `CC(=O)N1CC(C)(C)N(Cc2cc(-c3ccc(O)cc3F)nc3[nH]nc(C)c23)CC1(C)C` [Example 78, 1-{4-[6-(2-Fluoro-4-hydroxy-phenyl)-3-methyl-1H-pyrazolo[3,4-b]pyridin-4-ylmethyl]-2,2,5,5-tetramethyl-piperazin-1-yl}-ethanone], the inhibition at 1.14 µM amounted to 97%. For the compound `Cc1n[nH]c2nc(-c3ccc(O)cc3F)cc(CN3CC(C)(C)NCC3C(C)C)c12` (stereo not drawn) [Example 37, 3-Fluoro-4-[4-(2-isopropyl-5,5-dimethyl-piperazin-1-ylmethyl)-3-methyl-1H pyrazolo[3,4-b]pyridin-6-yl]-phenol], the inhibition at 1.14 µM turned out to be 94%. As to `Cc1n[nH]c2nc(-c3ccc(O)cc3)cc(CN3CCNCC3c3ccc(C(F)(F)F)cc3)c12` (stereo not drawn) [Example 44, 4-{3-Methyl-4-[2-(4-trifluoromethyl-phenyl)-piperazin-1-ylmethyl]-1H-pyrazolo[3,4-b]pyridin-6-yl}-phenol], the inhibition at 1.14 µM stood at 38%. With `Cc1n[nH]c2nc(-c3ccc(O)cc3)cc(CN(C)C3CCNC3)c12` (stereo not drawn) [Example 94, 4-{3-Methyl-4-[(methyl-pyrrolidin-3-yl-amino)-methyl]-1H-pyrazolo[3,4-b]pyridin-6-yl}-phenol], the inhibition at 1.14 µM came out at 92%. Regarding `Cc1n[nH]c2nc(-c3ccc(O)cc3F)cc(CN3CCNCC34CC4)c12` [Example 14, 4-[4-(4,7-Diaza-spiro[2.5]oct-4-ylmethyl)-3-methyl-1H-pyrazolo[3,4-b]pyridin-6-yl]-3-fluoro-phenol], the inhibition at 1.14 µM worked out at 98%. As for `Cc1n[nH]c2nc(-c3ccc(O)cc3)cc(CN3CCNCC3c3ccc(C(C)C)cc3)c12` (stereo not drawn) [Example 45, 4-{4-[2-(4-Isopropyl-phenyl)-piperazin-1-ylmethyl]-3-methyl-1H-pyrazolo[3,4-b]pyridin-6-yl}-phenol], the inhibition at 1.14 µM stood at 54%. On to `Cc1n[nH]c2nc(-c3ccc(O)cc3)cc(CN3CC(C)(C)N(C)CC3(C)C)c12` [Example 84, 4-[3-Methyl-4-(2,2,4,5,5-pentamethyl-piperazin-1-ylmethyl)-1H-pyrazolo[3,4-b]pyridin-6-yl]-phenol], for which the inhibition at 1.14 µM amounted to 98%. For the compound `Cc1n[nH]c2nc(-c3ccc(O)cc3F)cc(C(C)N3C[C@@H](C)N[C@@H](C)C3)c12` (stereo partly drawn) [Example 98, 4-{4-[1-((3S,5R)-3,5-Dimethyl-piperazin-1-yl)-ethyl]-3-methyl-1H-pyrazolo[3,4-b]pyridin-6-yl}-3-fluoro-phenol], the inhibition at 1.14 µM turned out to be 87%.

Consider `Cc1n[nH]c2nc(-c3ccc(O)cc3F)cc(CN3CC(C)(C)NCC34CCCC4)c12` [Example 15, 4-[4-(8,8-Dimethyl-6,9-diaza-spiro[4.5]dec-6-ylmethyl)-3-methyl-1H-pyrazolo[3,4-b]pyridin-6-yl]-3-fluoro-phenol], for which the inhibition at 1.14 µM is 96%. Turning to `Cc1n[nH]c2nc(-c3ccc(O)cc3F)cc(CN3CCNC[C@@]3(C)c3ccccc3)c12` [Example 118, 3-Fluoro-4-[3-methyl-4-((R)-2-methyl-2-phenyl-piperazin-1-ylmethyl)-1H-pyrazolo[3,4-b]pyridin-6-yl]-phenol], the inhibition at 1.14 µM stood at 84%. `Cc1n[nH]c2nc(-c3ccc(O)cc3F)cc(C(C)N3CCNCC3)c12` (stereo not drawn) [Example 97, 3-Fluoro-4-[3-methyl-4-(1-piperazin-1-yl-ethyl)-1H-pyrazolo[3,4-b]pyridin-6-yl]-phenol]: the inhibition at 1.14 µM was 96%. Turning to `Cc1n[nH]c2nc(-c3ccc(O)cc3F)cc(CN3CCNCC3c3ccc(C(C)C)cc3)c12` (stereo not drawn) [Example 2, 3-Fluoro-4-{4-[2-(4-isopropyl-phenyl)-piperazin-1-ylmethyl]-3-methyl-1H-pyrazolo[3,4-b]pyridin-6-yl}-phenol], the inhibition at 1.14 µM is 65%. In the case of `Cc1n[nH]c2nc(-c3ccc(O)cc3)cc(CN3CC(C)(C)NC[C@H]3C)c12` [Example 140, 4-[3-Methyl-4-((R)-2,5,5-trimethyl-piperazin-1-ylmethyl)-1H-pyrazolo[3,4-b]pyridin-6-yl]-phenol], the inhibition at 1.14 µM amounted to 98%.

For the compound `Cc1n[nH]c2nc(-c3ccc(O)cc3F)cc(CN3CCNCC3c3ccc(F)cc3)c12` (stereo not drawn) [Example 4, 3-Fluoro-4-{4-[2-(4-fluoro-phenyl)-piperazin-1-ylmethyl]-3-methyl-1H-pyrazolo[3,4-b]pyridin-6-yl}-phenol], the inhibition at 1.14 µM amounted to 94%. Consider `Cc1n[nH]c2nc(-c3ccc(O)cc3F)cc(CN3C[C@H](C)NC[C@H]3C(F)(F)F)c12` [Example 154, 3-Fluoro-4-[3-methyl-4-((2S,5S)-5-methyl-2-trifluoromethyl-piperazin-1-ylmethyl)-1H-pyrazolo[3,4-b]pyridin-6-yl]-phenol], for which the inhibition at 1.14 µM came out at 92%.

These data come from patent US9133181B2, “Substituted 6-(4-hydroxy-phenyl)-1H-pyrazolo[3,4-b]pyridine derivatives as kinase inhibitors” (SANOFI, priority 2012, dated 2015).
